Results as given in patent US11780851B2, “LRRK2 inhibitors” (H. Lundbeck A/S, priority 2021, dated 2023).
“Also recorded” adds a separate entry of the source.

Tests used:
[1] = Free fraction in plasma (equilibrium dialysis); assay type: in vitro ADME, male Sprague-Dawley rat; details: rat plasma, 1 μM, 5 h at 37° C.
Procedure, shortened: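 Equilibrium dialysis (12-14 kDa membrane) of male Sprague-Dawley rat or female Gottingen minipig plasma, or rat brain homogenate diluted 1:4, against 100 mM sodium phosphate pH 7.4, compound at 1 μM nominal (≤0.5% DMSO), 5 h at 37 °C. LC/MS-MS quantification; percent free calculated, with dilution factor 4 for brain.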

LRRK2 G2019S = target: T1, LRRK2 G2019S (Homo sapiens, UniProt Q5S007, G2019S); assay: LRRK2 G2019S kinase activity assay (LanthaScreen TR-FRET); assay type: biochemical; details: 250 pM LRRK2 G2019S, 1.3 mM ATP, 3 h at 30° C.; n≥2 tests
T1 construct: purchased Invitrogen (Life Technologies Corporation)
Procedure, shortened: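 TR-FRET measured phosphorylation of fluorescein-ERM LRRKtide by human LRRK2 residues 970–2527, wild-type or G2019S, detected with a terbium anti-phospho-LRRKtide antibody. The 520/495 nm ratio was normalized to uninhibited and inhibitor controls. IC50 came from a Hill fit, log-averaged over independent experiments.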

[2] = Hepatocyte intrinsic clearance assay; assay type: in vitro ADME, human; details: human, pooled donor, cryopreserved hepatocytes, pH 7.4, 0.1 μM, 2 h at 37° C., 1×10^6 hepatocytes/mL; * measured on 3 separate occasions, ** on a single occasion
Procedure, shortened: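 Test compound at 0.1 μM final (0.05% organic) incubated 2 h at 37° C with shaking in supplemented Leibovitz L-15 medium (pH7.4), 1×10^6 hepatocytes/mL final. Samples taken 1–120 min, quenched in acetonitrile, analyzed by LC-MS/MS. CLint derived from slope of % remaining versus time.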

[3] = test system: panel of 403 wild type kinases; assay: Broad kinase selectivity, Eurofins DiscoverX scanMAX panel; assay type: binding, primarily of human origin; details: screening concentration 100 nM; for Number of Hits: 403 non-mutant kinases
Description: Protein kinase profiling of the inhibitors (Fabian, M. A. et al. inhibitors. Nat. […] Selectivity Score or S-score is a quantitative measure of compound selectivity. It was calculated by dividing the number of kinases that compounds bind to by the total number of distinct kinases tested, excluding mutant variants. S=Number of hits/Number of assays. This value can be calculated using % Ctrl as a potency threshold (below) and provides a quantitative method of describing compound selectivity to facilitate comparison of different compounds.

GSH adduct screening = assay type: in vitro ADME, human; details: 1 μM, 3 h at 37° C., HLM 0.5 mg/mL, NADPH, with and without GSH
Description: Test compounds (final concentration 1 μM, 0.25% organic) were incubated for 3 h at 37° C. in commercially sourced, pooled donor, human liver microsomes (HLM, final concentration 0.5 mg/mL) with and without addition of glutathione (GSH; final concentration […]). The metabolic reaction was initiated by addition of microsomal solution to the mixture of cofactor NADPH (final concentration 1 mM), test compound and GSH. After 3 h of incubation in a water bath at 37° C., the reaction was stopped by addition of 0.2% formic acid in acetonitrile, followed by mixing and centrifugation (16000 g for 5 minutes). Supernatant was diluted (1:1) with HPLC water then analyzed by liquid chromatography (LC)-quadrupole time-of-flight mass spectrometry (QTOF-MS). Accurate mass MS and MS/MS spectra from samples with GSH and without GSH, respectively, were compared to identify detectable GSH and/or cysteine related adducts.

T1 sequence (Q5S007 970-2527 G2019S): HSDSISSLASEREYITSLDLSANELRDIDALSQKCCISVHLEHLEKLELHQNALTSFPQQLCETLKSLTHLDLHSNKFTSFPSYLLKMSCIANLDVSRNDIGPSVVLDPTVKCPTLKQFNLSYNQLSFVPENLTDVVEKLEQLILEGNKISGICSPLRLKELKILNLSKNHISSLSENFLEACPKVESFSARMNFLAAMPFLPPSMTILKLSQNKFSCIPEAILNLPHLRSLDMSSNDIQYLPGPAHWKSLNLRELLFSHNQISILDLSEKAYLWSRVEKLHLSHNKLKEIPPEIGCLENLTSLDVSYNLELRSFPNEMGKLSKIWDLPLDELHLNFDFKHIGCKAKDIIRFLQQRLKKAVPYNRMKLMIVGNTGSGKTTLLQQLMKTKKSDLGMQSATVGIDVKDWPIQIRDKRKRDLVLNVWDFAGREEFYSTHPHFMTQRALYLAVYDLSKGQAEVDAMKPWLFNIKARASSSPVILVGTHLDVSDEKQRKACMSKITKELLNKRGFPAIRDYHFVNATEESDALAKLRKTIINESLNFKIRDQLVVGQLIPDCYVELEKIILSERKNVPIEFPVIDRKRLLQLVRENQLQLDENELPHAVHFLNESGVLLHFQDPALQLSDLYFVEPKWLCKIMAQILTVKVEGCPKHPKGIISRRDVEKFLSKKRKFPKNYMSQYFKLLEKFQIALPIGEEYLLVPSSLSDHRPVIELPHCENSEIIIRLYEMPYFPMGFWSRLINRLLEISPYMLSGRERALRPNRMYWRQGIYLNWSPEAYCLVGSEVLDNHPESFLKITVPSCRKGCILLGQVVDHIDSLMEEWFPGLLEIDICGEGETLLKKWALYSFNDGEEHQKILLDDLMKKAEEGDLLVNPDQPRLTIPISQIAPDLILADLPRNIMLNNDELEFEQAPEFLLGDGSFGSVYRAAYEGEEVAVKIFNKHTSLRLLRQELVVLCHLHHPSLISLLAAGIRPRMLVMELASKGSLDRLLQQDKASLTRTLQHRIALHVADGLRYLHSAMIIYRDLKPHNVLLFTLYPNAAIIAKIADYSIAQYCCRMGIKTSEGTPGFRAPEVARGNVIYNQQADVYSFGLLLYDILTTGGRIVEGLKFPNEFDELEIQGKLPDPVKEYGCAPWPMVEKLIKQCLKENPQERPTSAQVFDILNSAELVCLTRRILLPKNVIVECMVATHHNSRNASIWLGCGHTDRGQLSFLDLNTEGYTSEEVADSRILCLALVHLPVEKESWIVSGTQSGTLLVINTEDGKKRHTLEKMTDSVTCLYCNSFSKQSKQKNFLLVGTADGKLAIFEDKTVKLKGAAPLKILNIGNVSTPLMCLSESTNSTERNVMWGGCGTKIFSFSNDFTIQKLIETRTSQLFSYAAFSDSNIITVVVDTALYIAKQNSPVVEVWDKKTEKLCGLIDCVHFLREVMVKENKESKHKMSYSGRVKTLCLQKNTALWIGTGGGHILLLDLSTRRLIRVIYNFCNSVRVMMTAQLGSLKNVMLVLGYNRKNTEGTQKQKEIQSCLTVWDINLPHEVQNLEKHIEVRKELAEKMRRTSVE

- fuplasma (% free) [1]: 32.0 % free
- IC50 (LRRK2 G2019S): 2.5 nM
- CLint scaled at 0.1 μM [2]: 6 mL/min/kg
- Selectivity Score ([3]; S(1): % Ctrl < 1): 0.002
- Number of Hits ([3]; S(1): % Ctrl < 1, hit is LRRK2 WT): 1
- Selectivity Score ([3]; S(10): % Ctrl < 10): 0.03
- Number of Hits ([3]; S(10): % Ctrl < 10): 12
- Selectivity Score ([3]; S(35): % Ctrl < 35): 0.094
- Number of Hits ([3]; S(35): % Ctrl < 35): 38
Structure (SMILES): [2H]C([2H])([2H])c1c2c(nn1C1CCOCC1)OCCCn1nc(Cl)c3cnc(nc31)N2 [Example 13, 8-Chloro-3-(methyl-d3)-2-(tetrahydro-2H-pyran-4-yl)-2,4,12,13-tetrahydro-11H-5,7-(azenometheno)dipyrazolo[3,4-b:5′,1′-g][1]oxa[4,6,8]triazacycloundecine]
- Adduct detected in GSH supplemented HLMs (GSH adduct screening): did not form GSH adduct; also recorded: None detected
